The source of these data is ChEMBL document CHEMBL1130934, “Enantioselective synthesis and pharmacology of 11-hydroxy-(1'S,2'R)-dimethylheptyl-delta 8-THC” (Bioorg Med Chem Lett, 1998).

Molecules are shown by their SMILES. pKi: −log10 of the molar value.

For test [1], the target named is T1, Cannabinoid receptor 1 (Rattus norvegicus, UniProt P20272). Put plainly: Binding affinity for the Cannabinoid receptor using [3H]CP-55940 as radioligand.
The species named for test [2] is Mus musculus. Put plainly: Compound was evaluated in mouse model for cannabimimetic activity, expressed as as effective dose for antinociception (TF). The format is functional.
The species named for test [3] is Mus musculus. Put plainly: Compound was evaluated in mouse model for cannabimimetic activity, expressed as as effective dose for hypothermia (rectal temperature, RT). Type of test: functional.
Test [4] is filed under the species Mus musculus. Put plainly: Compound was evaluated in mouse model for cannabimimetic activity, expressed as effective dose for spontaneous activity(SA). The format is functional.
Test [5] concerns the target T1, Cannabinoid receptor 1. Put plainly: Binding affinity for the cannabinoid brain receptor (CB1) using [3H]CP-55940.

T1 sequence (P20272 whole entry): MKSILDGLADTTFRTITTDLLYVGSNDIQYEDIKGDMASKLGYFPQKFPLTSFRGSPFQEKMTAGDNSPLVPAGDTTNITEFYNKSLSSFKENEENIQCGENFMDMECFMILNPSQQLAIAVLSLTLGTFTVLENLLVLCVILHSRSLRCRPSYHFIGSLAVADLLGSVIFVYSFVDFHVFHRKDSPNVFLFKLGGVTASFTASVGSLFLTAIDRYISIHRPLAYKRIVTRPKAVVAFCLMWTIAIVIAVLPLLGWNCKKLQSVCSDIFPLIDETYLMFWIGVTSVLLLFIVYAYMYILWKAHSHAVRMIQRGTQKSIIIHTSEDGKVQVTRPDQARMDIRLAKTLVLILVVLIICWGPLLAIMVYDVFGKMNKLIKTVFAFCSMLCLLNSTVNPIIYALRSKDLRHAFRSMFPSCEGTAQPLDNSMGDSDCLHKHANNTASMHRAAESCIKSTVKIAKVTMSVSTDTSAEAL

With `CCCCCCC(C)(C)c1cc(O)c2c(c1)OC(C)(C)[C@@H]1CC=C(CO)C[C@@H]21`, at Cannabinoid receptor 1 [1], the pKi (as a rule, −log10 of the Ki, conventionally taken in molar units) is 9.14. Further, the ED50 (in general, the dose at which the effect has come halfway, by size or by number of responders) in the test listed under Mus musculus [2] was found to be 0.02 µmol/kg; in the test filed under Mus musculus [3], 0.05 µmol/kg; in the test listed under Mus musculus [4] it was 0.01 µmol/kg.

In turn, `CCCCCCC(C)(C)c1cc(O)c2c(c1)OC(C)(C)[C@@H]1CC=C(C)C[C@@H]21` gave a pKi on Cannabinoid receptor 1 [5] of 9.11. Besides, the values for the ED50 in the test filed under Mus musculus [2], in the test filed under Mus musculus [3] and in the test listed under Mus musculus [4] were 0.14 µmol/kg, 0.15 µmol/kg and 0.27 µmol/kg, respectively.

Regarding `CCCCC[C@@H](C)[C@H](C)c1cc(O)c2c(c1)OC(C)(C)[C@@H]1CC=C(C)C[C@@H]21`, the negative-log Ki (pKi) on Cannabinoid receptor 1 [5] is 9.34. For the same compound, the figures for the ED50 in the test listed under Mus musculus [2], in the test listed under Mus musculus [3] and in the test listed under Mus musculus [4] were 0.03 µmol/kg, 0.07 µmol/kg and 0.03 µmol/kg, respectively.

Compound `CCCCC[C@@H](C)[C@H](C)c1cc(O)c2c(c1)OC(C)(C)[C@@H]1CC=C(CO)C[C@@H]21` gave a negative-log Ki (pKi) on Cannabinoid receptor 1 [5] of 9.31. Moreover, the ED50 in the test filed under Mus musculus [2] worked out at 0.03 µmol/kg; in the test listed under Mus musculus [3] it was 0.02 µmol/kg; in the test filed under Mus musculus [4] it was 0.01 µmol/kg.
